Paper PMC9954146, “Anti-Leukaemic Activity of Rilpivirine Is Mediated by Aurora A Kinase Inhibition” (Cancers, 2023)

How the values were obtained:
Test in all cases: Kinase panel
Assay type in all cases: biochemical
[1] = molecular target: T1, ALK2(h) (Homo sapiens, UniProt Q04771); settings: read-out: % Residual Activity
T1 construct: purchased Eurofins (KinaseProfiler)
Method in brief: (§1)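 Cheng–Prusoff conversion of IC50 to Ki; IC50s from radioisotope-based assays at Km(ATP). Kinome-wide rilpivirine profiling.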

[2] = molecular target: T2, Abl(h) (Homo sapiens, UniProt P00519); settings: read-out: % Residual Activity
T2 construct: purchased Eurofins (KinaseProfiler)
Method in brief: as §1

[3] = molecular target: T3, Arg(h) (Homo sapiens, UniProt P42684); settings: read-out: % Residual Activity
T3 construct: purchased Eurofins (KinaseProfiler)
Method in brief: as §1

[4] = molecular target: T4, BTK(h) (Homo sapiens, UniProt Q06187); settings: read-out: % Residual Activity
T4 construct: purchased Eurofins (KinaseProfiler)
Method in brief: as §1

[5] = molecular target: T5, Blk(m) (Mus musculus, UniProt P16277); settings: read-out: % Residual Activity
T5 construct: purchased Eurofins (KinaseProfiler)
Method in brief: as §1

[6] = molecular target: T6, BrSK1(h) (Homo sapiens, UniProt Q8TDC3); settings: read-out: % Residual Activity
T6 construct: purchased Eurofins (KinaseProfiler)
Method in brief: as §1

[7] = molecular target: T7, CDK17/cyclinY(h) (Homo sapiens, UniProt Q00537); settings: read-out: % Residual Activity
T7 construct: purchased Eurofins (KinaseProfiler)
Method in brief: as §1

[8] = molecular target: T8, CDK2/cyclinA(h) (Homo sapiens, UniProt P24941); settings: read-out: % Residual Activity
T8 construct: purchased Eurofins (KinaseProfiler)
Method in brief: as §1

[9] = molecular target: T9, CDK5/p25(h) (Homo sapiens, UniProt Q00535); settings: read-out: % Residual Activity
T9 construct: purchased Eurofins (KinaseProfiler)
Method in brief: as §1

[10] = molecular target: T10, CK1α(h) (Homo sapiens, UniProt P48729); settings: read-out: % Residual Activity
T10 construct: purchased Eurofins (KinaseProfiler)
Method in brief: as §1

[11] = molecular target: T11, CLK2(h) (Homo sapiens, UniProt P49760); settings: read-out: % Residual Activity
T11 construct: purchased Eurofins (KinaseProfiler)
Method in brief: as §1

[12] = molecular target: T12, CaMKI(h) (Homo sapiens, UniProt Q14012); settings: read-out: % Residual Activity
T12 construct: purchased Eurofins (KinaseProfiler)
Method in brief: as §1

[13] = molecular target: T13, CaMKIß(h) (Homo sapiens, UniProt Q6P2M8); settings: read-out: % Residual Activity
T13 construct: purchased Eurofins (KinaseProfiler)
Method in brief: as §1

[14] = molecular target: T14, EphB1(h) (Homo sapiens, UniProt P54762); settings: read-out: % Residual Activity
T14 construct: purchased Eurofins (KinaseProfiler)
Method in brief: as §1

[15] = molecular target: T15, FGFR1(V561M)(h) (Homo sapiens, UniProt P11362, V561M); settings: read-out: % Residual Activity
T15 construct: purchased Eurofins (KinaseProfiler)
T15 sequence (P11362 22-822 V561M): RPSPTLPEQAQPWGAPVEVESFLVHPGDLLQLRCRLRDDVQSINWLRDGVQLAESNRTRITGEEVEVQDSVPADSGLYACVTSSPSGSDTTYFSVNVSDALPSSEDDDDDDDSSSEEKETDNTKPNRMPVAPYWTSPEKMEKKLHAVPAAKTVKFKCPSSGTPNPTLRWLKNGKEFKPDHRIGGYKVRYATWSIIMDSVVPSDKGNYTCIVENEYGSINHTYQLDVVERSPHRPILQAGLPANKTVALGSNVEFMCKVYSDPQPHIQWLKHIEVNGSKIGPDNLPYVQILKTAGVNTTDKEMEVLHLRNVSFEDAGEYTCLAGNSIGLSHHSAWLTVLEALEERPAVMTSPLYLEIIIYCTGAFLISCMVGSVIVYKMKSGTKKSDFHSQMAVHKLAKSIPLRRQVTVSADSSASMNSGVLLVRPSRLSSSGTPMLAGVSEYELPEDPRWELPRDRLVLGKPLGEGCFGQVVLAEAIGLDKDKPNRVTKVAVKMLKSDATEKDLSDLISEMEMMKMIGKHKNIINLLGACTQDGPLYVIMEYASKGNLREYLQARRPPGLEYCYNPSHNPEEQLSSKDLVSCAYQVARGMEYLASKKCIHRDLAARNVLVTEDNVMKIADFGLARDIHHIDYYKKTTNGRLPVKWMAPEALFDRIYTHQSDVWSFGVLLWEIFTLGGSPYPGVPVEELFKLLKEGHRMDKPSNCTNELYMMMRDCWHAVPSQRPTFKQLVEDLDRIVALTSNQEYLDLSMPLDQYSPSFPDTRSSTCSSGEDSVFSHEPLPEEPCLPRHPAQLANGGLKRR
Method in brief: as §1

[16] = molecular target: T16, FGFR1(h) (Homo sapiens, UniProt P11362); settings: read-out: % Residual Activity
T16 construct: purchased Eurofins (KinaseProfiler)
T16 sequence (P11362 22-822): as the sequence (P11362 22-822 V561M) above, with M540V counted along it
Method in brief: as §1

[17] = molecular target: T17, Fer(h) (Homo sapiens, UniProt P16591); settings: read-out: % Residual Activity
T17 construct: purchased Eurofins (KinaseProfiler)
Method in brief: as §1

[18] = molecular target: T18, Fyn(h) (Homo sapiens, UniProt P06241); settings: read-out: % Residual Activity
T18 construct: purchased Eurofins (KinaseProfiler)
T18 sequence (P06241 whole entry): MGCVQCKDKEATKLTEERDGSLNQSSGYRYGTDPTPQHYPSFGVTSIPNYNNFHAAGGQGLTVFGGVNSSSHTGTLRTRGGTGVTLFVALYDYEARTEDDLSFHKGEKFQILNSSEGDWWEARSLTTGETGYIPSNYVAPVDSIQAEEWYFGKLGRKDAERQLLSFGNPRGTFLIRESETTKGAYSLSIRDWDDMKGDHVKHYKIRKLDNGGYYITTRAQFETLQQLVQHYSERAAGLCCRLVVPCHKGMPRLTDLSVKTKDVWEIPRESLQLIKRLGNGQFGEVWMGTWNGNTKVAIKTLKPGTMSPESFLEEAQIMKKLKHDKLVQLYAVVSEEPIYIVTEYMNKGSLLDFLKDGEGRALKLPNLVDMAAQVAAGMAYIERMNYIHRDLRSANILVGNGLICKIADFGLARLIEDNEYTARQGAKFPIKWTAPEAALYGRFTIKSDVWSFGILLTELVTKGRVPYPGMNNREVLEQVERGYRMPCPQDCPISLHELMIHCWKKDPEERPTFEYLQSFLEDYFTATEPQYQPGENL
Method in brief: as §1

[19] = molecular target: T19, IR(h), activated (Homo sapiens, UniProt P06213); settings: read-out: % Residual Activity
T19 construct: purchased Eurofins (KinaseProfiler)
T19 sequence (P06213 28-1382): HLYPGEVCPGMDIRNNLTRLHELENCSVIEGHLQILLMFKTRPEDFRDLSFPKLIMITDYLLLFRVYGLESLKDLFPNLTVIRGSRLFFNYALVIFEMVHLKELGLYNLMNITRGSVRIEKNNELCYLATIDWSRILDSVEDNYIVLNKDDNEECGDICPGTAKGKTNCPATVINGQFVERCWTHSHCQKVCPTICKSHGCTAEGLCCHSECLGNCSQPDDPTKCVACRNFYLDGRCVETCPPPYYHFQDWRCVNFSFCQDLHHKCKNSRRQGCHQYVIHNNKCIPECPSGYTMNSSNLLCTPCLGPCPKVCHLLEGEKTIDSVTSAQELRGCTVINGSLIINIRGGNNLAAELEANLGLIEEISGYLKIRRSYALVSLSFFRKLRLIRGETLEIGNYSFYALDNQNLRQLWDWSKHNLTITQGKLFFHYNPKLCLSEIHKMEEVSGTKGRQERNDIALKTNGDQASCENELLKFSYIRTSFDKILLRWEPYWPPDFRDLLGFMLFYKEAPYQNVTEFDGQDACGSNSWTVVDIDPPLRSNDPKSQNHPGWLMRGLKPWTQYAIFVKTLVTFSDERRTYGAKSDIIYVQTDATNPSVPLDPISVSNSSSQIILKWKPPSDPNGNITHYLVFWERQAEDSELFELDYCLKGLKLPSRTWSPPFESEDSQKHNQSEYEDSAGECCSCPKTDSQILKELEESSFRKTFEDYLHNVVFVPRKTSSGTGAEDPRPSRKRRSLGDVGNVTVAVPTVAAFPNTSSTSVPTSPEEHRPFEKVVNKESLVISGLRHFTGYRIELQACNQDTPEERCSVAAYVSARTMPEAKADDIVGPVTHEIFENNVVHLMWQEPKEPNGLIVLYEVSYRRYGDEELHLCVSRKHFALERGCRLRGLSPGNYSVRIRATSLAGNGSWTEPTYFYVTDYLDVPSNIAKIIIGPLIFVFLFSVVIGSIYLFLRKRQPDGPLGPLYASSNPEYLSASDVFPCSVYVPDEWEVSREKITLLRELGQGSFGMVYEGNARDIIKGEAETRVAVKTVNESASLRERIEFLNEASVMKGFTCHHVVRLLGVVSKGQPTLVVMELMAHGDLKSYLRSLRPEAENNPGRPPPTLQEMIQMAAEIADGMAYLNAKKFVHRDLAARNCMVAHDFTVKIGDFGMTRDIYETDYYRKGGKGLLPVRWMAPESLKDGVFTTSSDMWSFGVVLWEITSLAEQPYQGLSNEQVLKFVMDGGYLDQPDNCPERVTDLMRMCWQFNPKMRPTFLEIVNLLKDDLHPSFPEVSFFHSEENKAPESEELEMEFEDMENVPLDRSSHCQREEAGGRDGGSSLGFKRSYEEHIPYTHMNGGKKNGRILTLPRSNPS
Method in brief: as §1

[20] = molecular target: T20, LIMK1(h) (Homo sapiens, UniProt P53667); settings: read-out: % Residual Activity
T20 construct: purchased Eurofins (KinaseProfiler)
Method in brief: as §1

[21] = molecular target: T21, Lyn(h) (Homo sapiens, UniProt P07948)
T21 construct: purchased Eurofins (KinaseProfiler)
T21 sequence (P07948 whole entry): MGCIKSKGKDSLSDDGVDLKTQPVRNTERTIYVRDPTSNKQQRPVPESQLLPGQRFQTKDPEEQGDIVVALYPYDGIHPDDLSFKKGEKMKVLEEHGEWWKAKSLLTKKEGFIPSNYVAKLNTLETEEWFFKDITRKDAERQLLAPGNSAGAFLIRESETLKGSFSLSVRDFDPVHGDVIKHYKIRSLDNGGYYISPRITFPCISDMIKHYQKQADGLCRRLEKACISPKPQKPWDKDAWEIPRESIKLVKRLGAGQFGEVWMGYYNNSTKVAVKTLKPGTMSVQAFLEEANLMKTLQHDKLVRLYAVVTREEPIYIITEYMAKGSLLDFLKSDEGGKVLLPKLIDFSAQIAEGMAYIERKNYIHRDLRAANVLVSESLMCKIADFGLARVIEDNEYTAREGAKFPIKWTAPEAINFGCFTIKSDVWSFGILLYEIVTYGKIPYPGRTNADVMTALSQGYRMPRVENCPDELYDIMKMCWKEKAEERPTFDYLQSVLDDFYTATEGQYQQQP
Method in brief: as §1

[22] = molecular target: T22, MAPKAP-K3(h) (Homo sapiens, UniProt Q16644); settings: read-out: % Residual Activity
T22 construct: purchased Eurofins (KinaseProfiler)
Method in brief: as §1

[23] = molecular target: T23, MOK(h) (Homo sapiens, UniProt Q9UQ07); settings: read-out: % Residual Activity
T23 construct: purchased Eurofins (KinaseProfiler)
T23 sequence (Q9UQ07 whole entry): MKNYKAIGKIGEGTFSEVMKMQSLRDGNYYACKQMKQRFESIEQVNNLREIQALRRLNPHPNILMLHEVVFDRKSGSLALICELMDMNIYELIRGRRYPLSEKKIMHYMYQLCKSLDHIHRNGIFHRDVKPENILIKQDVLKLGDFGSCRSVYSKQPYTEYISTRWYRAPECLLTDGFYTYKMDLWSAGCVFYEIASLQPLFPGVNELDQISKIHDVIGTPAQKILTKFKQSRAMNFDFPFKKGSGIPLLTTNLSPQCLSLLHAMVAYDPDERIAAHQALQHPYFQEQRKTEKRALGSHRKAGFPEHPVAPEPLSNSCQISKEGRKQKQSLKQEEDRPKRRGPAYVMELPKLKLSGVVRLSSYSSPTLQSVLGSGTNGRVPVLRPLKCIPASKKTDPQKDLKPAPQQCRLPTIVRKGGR
Method in brief: as §1

[24] = molecular target: T24, MRCKβ(h) (Homo sapiens, UniProt Q9Y5S2); settings: read-out: % Residual Activity
T24 construct: purchased Eurofins (KinaseProfiler)
Method in brief: as §1

[25] = molecular target: T25, MSSK1(h) (Homo sapiens, UniProt Q9UPE1); settings: read-out: % Residual Activity
T25 construct: purchased Eurofins (KinaseProfiler)
T25 sequence (Q9UPE1 whole entry): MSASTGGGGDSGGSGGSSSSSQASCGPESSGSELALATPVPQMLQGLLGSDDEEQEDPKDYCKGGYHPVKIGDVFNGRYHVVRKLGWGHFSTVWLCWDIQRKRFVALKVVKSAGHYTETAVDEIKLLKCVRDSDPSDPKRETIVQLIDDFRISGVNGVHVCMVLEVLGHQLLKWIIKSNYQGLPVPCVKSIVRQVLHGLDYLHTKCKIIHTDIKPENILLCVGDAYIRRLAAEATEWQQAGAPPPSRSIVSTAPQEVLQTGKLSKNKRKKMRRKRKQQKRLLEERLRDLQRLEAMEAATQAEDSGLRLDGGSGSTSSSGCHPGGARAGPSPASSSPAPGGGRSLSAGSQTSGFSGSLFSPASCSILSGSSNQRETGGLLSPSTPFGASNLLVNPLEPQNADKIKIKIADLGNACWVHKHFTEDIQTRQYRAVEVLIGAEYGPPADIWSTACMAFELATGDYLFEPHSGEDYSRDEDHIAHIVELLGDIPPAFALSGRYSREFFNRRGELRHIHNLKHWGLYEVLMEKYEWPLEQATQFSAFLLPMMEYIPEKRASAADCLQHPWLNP
Method in brief: as §1

[26] = molecular target: T26, Met(D1246N)(h) (Homo sapiens, UniProt P08581, D1228N); settings: read-out: % Residual Activity
T26 construct: purchased Eurofins (KinaseProfiler)
Method in brief: as §1

[27] = molecular target: T27, Met(M1268T)(h) (Homo sapiens, UniProt P08581, M1250T); settings: read-out: % Residual Activity
T27 construct: purchased Eurofins (KinaseProfiler)
Method in brief: as §1

[28] = molecular target: T28, Met(Y1248H)(h) (Homo sapiens, UniProt P08581, Y1230H); settings: read-out: % Residual Activity
T28 construct: purchased Eurofins (KinaseProfiler)
Method in brief: as §1

[29] = molecular target: T29, Mnk2(h) (Homo sapiens, UniProt Q9HBH9); settings: read-out: % Residual Activity
T29 construct: purchased Eurofins (KinaseProfiler)
Method in brief: as §1

[30] = molecular target: T30, NDR1(h) (Homo sapiens, UniProt Q15208); settings: read-out: % Residual Activity
T30 construct: purchased Eurofins (KinaseProfiler)
Method in brief: as §1

[31] = molecular target: T31, PAK6(h) (Homo sapiens, UniProt Q9NQU5); settings: read-out: % Residual Activity
T31 construct: purchased Eurofins (KinaseProfiler)
Method in brief: as §1

[32] = molecular target: T32, PI3 Kinase (p110a/p85a)(m) (Mus musculus, UniProt P42337); settings: read-out: % Residual Activity
T32 construct: purchased Eurofins (KinaseProfiler)
Method in brief: as §1

[33] = molecular target: T33, SAPK2b(h) (Homo sapiens, UniProt Q15759); settings: read-out: % Residual Activity
T33 construct: purchased Eurofins (KinaseProfiler)
Method in brief: as §1

[34] = molecular target: T34, SLK(h) (Homo sapiens, UniProt Q9H2G2); settings: read-out: % Residual Activity
T34 construct: purchased Eurofins (KinaseProfiler)
Method in brief: as §1

[35] = molecular target: T35, STK32A(h) (Homo sapiens, UniProt Q8WU08); settings: read-out: % Residual Activity
T35 construct: purchased Eurofins (KinaseProfiler)
Method in brief: as §1

[36] = molecular target: T36, TAO2(h) (Homo sapiens, UniProt Q9UL54); settings: read-out: % Residual Activity
T36 construct: purchased Eurofins (KinaseProfiler)
Method in brief: as §1

[37] = molecular target: T37, Wee1(h) (Homo sapiens, UniProt P30291); settings: read-out: % Residual Activity
T37 construct: purchased Eurofins (KinaseProfiler)
Method in brief: as §1

[38] = molecular target: T38, Yes(h) (Homo sapiens, UniProt P07947)
T38 construct: purchased Eurofins (KinaseProfiler)
T38 sequence (P07947 whole entry): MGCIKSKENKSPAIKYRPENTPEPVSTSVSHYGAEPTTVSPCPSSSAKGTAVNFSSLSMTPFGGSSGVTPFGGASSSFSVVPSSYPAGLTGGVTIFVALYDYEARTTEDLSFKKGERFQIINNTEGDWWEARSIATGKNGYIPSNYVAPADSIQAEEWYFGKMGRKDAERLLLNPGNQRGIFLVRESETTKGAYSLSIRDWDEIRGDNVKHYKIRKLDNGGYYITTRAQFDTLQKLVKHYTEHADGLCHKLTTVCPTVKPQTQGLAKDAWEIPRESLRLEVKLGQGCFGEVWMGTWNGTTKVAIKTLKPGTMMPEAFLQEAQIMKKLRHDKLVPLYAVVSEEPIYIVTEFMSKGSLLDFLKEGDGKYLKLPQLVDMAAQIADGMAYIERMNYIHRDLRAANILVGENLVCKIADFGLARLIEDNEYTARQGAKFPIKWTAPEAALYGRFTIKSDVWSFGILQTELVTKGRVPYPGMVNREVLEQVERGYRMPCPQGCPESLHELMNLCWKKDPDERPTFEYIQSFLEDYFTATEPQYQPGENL
Method in brief: as §1

Cc1cc(/C=C/C#N)cc(C)c1Nc1ccnc(Nc2ccc(C#N)cc2)n1 [rilpivirine, (E)-4-((4-((4-(2-cyanoethenyl)-2,6-dimethylphenyl)amino)pyrimidin-2-yl)amino)benzonitrile]
remaining activity at 1 µM [1]: 91% | remaining activity at 1 µM [2]: 86% | remaining activity at 1 µM [3]: 70% | remaining activity at 1 µM [4]: 90% | remaining activity at 1 µM [5]: 75% | remaining activity at 1 µM [6]: 84% | remaining activity at 1 µM [7]: 78% | remaining activity at 1 µM [8]: 87% | remaining activity at 1 µM [9]: 97% | remaining activity at 1 µM [10]: 103% | remaining activity at 1 µM [11]: 60% | remaining activity at 1 µM [12]: 92% | remaining activity at 1 µM [13]: 92% | remaining activity at 1 µM [14]: 94% | remaining activity at 1 µM [15]: 97% | remaining activity at 1 µM [16]: 94% | remaining activity at 1 µM [17]: 91% | remaining activity at 1 µM [18]: 49% | remaining activity at 1 µM [19]: 85% | remaining activity at 1 µM [20]: 47% | inhibition at 1 µM ([21]; LYN, read-out: inhibitory activity): > 70% | remaining activity at 1 µM ([21]; read-out: % Residual Activity): 23% | remaining activity at 1 µM [22]: 90% | remaining activity at 1 µM [23]: 92% | remaining activity at 1 µM [24]: 87% | remaining activity at 1 µM [25]: 84% | remaining activity at 1 µM [26]: 102% | remaining activity at 1 µM [27]: 109% | remaining activity at 1 µM [28]: 98% | remaining activity at 1 µM [29]: 85% | remaining activity at 1 µM [30]: 89% | remaining activity at 1 µM [31]: 117% | remaining activity at 1 µM [32]: 100% | remaining activity at 1 µM [33]: 98% | remaining activity at 1 µM [34]: 106% | remaining activity at 1 µM [35]: 89% | remaining activity at 1 µM [36]: 59% | remaining activity at 1 µM [37]: 90% | inhibition at 1 µM ([38]; YES, read-out: inhibitory activity): > 70% | remaining activity at 1 µM ([38]; read-out: % Residual Activity): 17%
